This passage reports MIC and Activity results from ChEMBL document CHEMBL5352496, “Design, synthesis and biological activity of hybrid antifungals derived from fluconazole and mebendazole” (Eur J Med Chem, 2023).

Data set [1] deals with Candida albicans. Briefly: Antifungal activity against Candida albicans CMRC 19 incubated for 24 hrs by broth microdilution method. Format: functional. For orientation: In broth dilution the organism is exposed to a series of concentrations in liquid medium.
In data set [2] the test system is Candida albicans. The experiment in a line: Antifungal activity against Candida albicans FDC 151 incubated for 24 hrs by broth microdilution method. The class given is functional.
Data set [3] deals with Candida albicans. Briefly: Antifungal activity against Candida albicans CMRC 192 incubated for 24 hrs by broth microdilution method. Format: functional.
The subject of data set [4] is Nakaseomyces glabratus. Briefly: Antifungal activity against Candida glabrata FDC 192 incubated for 24 hrs by broth microdilution method. Format: functional.
The subject of data set [5] is Nakaseomyces glabratus. The experiment in a line: Antifungal activity against Candida glabrata CMRC 89 incubated for 24 hrs by broth microdilution method. The class given is functional.
Data set [6] relates to Candida parapsilosis. The experiment in a line: Antifungal activity against Candida parapsilosis ATCC 22019 incubated for 24 hrs by broth microdilution method. The class given is functional. The note with it: Lodderomyces parapsilosis.
The subject of data set [7] is Candida tropicalis. The experiment in a line: Antifungal activity against Candida tropicalis FDC 138 incubated for 24 hrs by broth microdilution method. Format: functional.
Data set [8] has as its system Cryptococcus neoformans. Briefly: Antifungal activity against Cryptococcus neoformans IFRC 340 incubated for 24 hrs by broth microdilution method. Format: functional.
Data set [9] concerns BEAS-2B. The experiment in a line: Cytotoxicity against human BEAS-2B cells assessed as cell viability at 25 ug/ml incubated for 48 hrs by MTT assay. The class given is toxicity, cell-based. The note with it: dose 25 µg/ml. A general note: Tetrazolium assays rely on reduction of a dye to a coloured formazan, in cell work by metabolically active cells.
Data set [10] concerns HepG2. The experiment in a line: Cytotoxicity against human HepG2 cells assessed as cell viability at 25 ug/ml incubated for 48 hrs by MTT assay. The class given is toxicity, cell-based. The conditions noted are these: hepg2, 48 h, dose 25 µg/ml.

SMILES strings stand for the structures. Values after ≈ are worked out from the molar mass of the structure shown.

As usually defined, the MIC is the smallest concentration in the dilution series that meets the test's criterion for growth inhibition. A higher MIC goes with weaker potency. Regarding `OC(CSc1nc2ccccc2s1)(Cn1cncn1)c1ccc(Cl)cc1Cl` (stereo not drawn), the MIC in data set [1] is 16 µg/mL (≈ 36.6 µM); in data set [2], 8 µg/mL (≈ 18.3 µM); in data set [3] it was 8 µg/mL (≈ 18.3 µM); in data set [4], 16 µg/mL (≈ 36.6 µM); in [5], 16 µg/mL (≈ 36.6 µM); in [6], 16 µg/mL (≈ 36.6 µM). For the same compound, the results for the MIC in data set [7] and in data set [8] were 8 µg/mL (≈ 18.3 µM) and 16 µg/mL (≈ 36.6 µM), respectively.

In the case of `OC(c1ccccc1)c1ccc2[nH]c(SCC(O)(Cn3cncn3)c3ccccc3)nc2c1` (stereo not drawn), the MIC worked out at 8 µg/mL (≈ 17.5 µM) in [1]; 2 µg/mL (≈ 4.37 µM) in [2]; 8 µg/mL (≈ 17.5 µM) in [3]; 8 µg/mL (≈ 17.5 µM) in data set [4]; 16 µg/mL (≈ 35 µM) in [5]; 4 µg/mL (≈ 8.74 µM) in data set [6]. Moreover, the figures for the MIC in [7] and in data set [8] were 2 µg/mL (≈ 4.37 µM) and 8 µg/mL (≈ 17.5 µM), respectively.

Regarding `OC(CSc1nc2ccccc2s1)(Cn1cncn1)c1ccc(F)cc1F` (stereo not drawn), the minimal inhibitory concentration (MIC) was 16 µg/mL (≈ 39.6 µM) in data set [1]; more than 64 µg/mL in [2]; 32 µg/mL (≈ 79.1 µM) in data set [3]; more than 64 µg/mL in data set [4]; 32 µg/mL (≈ 79.1 µM) in [5]; more than 64 µg/mL in [6]. Further, the MIC in data set [7] and in data set [8] was more than 64 µg/mL throughout.

As for `O=C(c1ccccc1)c1ccc2[nH]c(SCC(O)(Cn3cncn3)c3ccc(F)cc3)nc2c1` (stereo not drawn), the MIC in data set [1] was 8 µg/mL (≈ 16.9 µM); in data set [2], 16 µg/mL (≈ 33.8 µM); in [3] it was 8 µg/mL (≈ 16.9 µM); in [4], more than 64 µg/mL; in data set [5], 16 µg/mL (≈ 33.8 µM); in data set [6], more than 64 µg/mL. Further, the MIC was 16 µg/mL (≈ 33.8 µM) in [7] and 32 µg/mL (≈ 67.6 µM) in data set [8].

As for `OC(CSc1nc2ccccc2[nH]1)(Cn1cncn1)c1ccccc1` (stereo not drawn), the MIC was more than 64 µg/mL in data set [1]; more than 64 µg/mL in [2]; more than 64 µg/mL in data set [3]; more than 64 µg/mL in data set [4]; 16 µg/mL (≈ 45.5 µM) in data set [5]; 32 µg/mL (≈ 91.1 µM) in data set [6]. Further, the MIC in data set [7] is 32 µg/mL (≈ 91.1 µM); in data set [8], more than 64 µg/mL.

As to `OC(CSc1nc2ccccc2[nH]1)(Cn1cncn1)c1ccc(F)cc1` (stereo not drawn), the MIC in data set [1] is 0.125 µg/mL (≈ 0.338 µM); in [2] it was 0.063 µg/mL (≈ 0.171 µM); in data set [3], 0.25 µg/mL (≈ 0.677 µM); in data set [4], 0.125 µg/mL (≈ 0.338 µM); in data set [5], 1 µg/mL (≈ 2.71 µM); in [6], less than 0.063 µg/mL. For the same compound, the MIC is less than 0.063 µg/mL in data set [7] and 0.125 µg/mL (≈ 0.338 µM) in data set [8]. Besides, the Activity entry in data set [9] and in data set [10] was “Toxic” in each case.

In the case of `OC(Cn1cncn1)(Cn1cncn1)c1ccc(F)cc1F` [FLUCONAZOLE], the MIC in data set [1] worked out at 0.25 µg/mL (≈ 0.816 µM); in data set [2], 0.5 µg/mL (≈ 1.63 µM); in data set [3], 0.25 µg/mL (≈ 0.816 µM); in [4] it was 1 µg/mL (≈ 3.27 µM); in [5] it was 2 µg/mL (≈ 6.53 µM); in data set [6], 0.5 µg/mL (≈ 1.63 µM). The MIC in data set [7] is 0.25 µg/mL (≈ 0.816 µM); in data set [8], 0.5 µg/mL (≈ 1.63 µM).

As for `O=C(c1ccccc1)c1ccc2[nH]c(SCC(O)(Cn3cncn3)c3ccc(Cl)cc3)nc2c1` (stereo not drawn), the MIC in [1] is 0.5 µg/mL (≈ 1.02 µM); in data set [2] it was less than 0.063 µg/mL; in data set [3] it was 0.5 µg/mL (≈ 1.02 µM); in [4], 0.125 µg/mL (≈ 0.255 µM); in data set [5], 1 µg/mL (≈ 2.04 µM); in data set [6], less than 0.063 µg/mL. In addition, the MIC is less than 0.063 µg/mL in [7] and 0.125 µg/mL (≈ 0.255 µM) in data set [8]. For the same compound, the Activity entry in data set [9] and in data set [10] was “Toxic” each time.

As for `OC(CSc1nc2ccccc2[nH]1)(Cn1cncn1)c1ccc(Cl)cc1Cl` (stereo not drawn), the MIC in data set [1] was determined as 8 µg/mL (≈ 19 µM); in data set [2], 8 µg/mL (≈ 19 µM); in [3], 8 µg/mL (≈ 19 µM); in data set [4] it was 16 µg/mL (≈ 38.1 µM); in [5] it was 16 µg/mL (≈ 38.1 µM); in data set [6], 8 µg/mL (≈ 19 µM). The MIC in [7] and in data set [8] was 8 µg/mL (≈ 19 µM) throughout.

Take `OC(CSc1nc2ccccc2s1)(Cn1cncn1)c1ccc(Cl)cc1` (stereo not drawn): the MIC in data set [1] turned out to be 4 µg/mL (≈ 9.93 µM); in data set [2], 8 µg/mL (≈ 19.9 µM); in data set [3] it was 4 µg/mL (≈ 9.93 µM); in data set [4] it was 8 µg/mL (≈ 19.9 µM); in data set [5], 2 µg/mL (≈ 4.96 µM); in data set [6], 8 µg/mL (≈ 19.9 µM). The MIC in data set [7] and in [8] was 4 µg/mL (≈ 9.93 µM) each time.

Regarding `OC(CSc1nc2ccccc2s1)(Cn1cncn1)c1ccc(F)cc1` (stereo not drawn), the MIC in [1] is 8 µg/mL (≈ 20.7 µM); in [2], more than 64 µg/mL; in data set [3] it was 16 µg/mL (≈ 41.4 µM); in [4], more than 64 µg/mL; in data set [5], 8 µg/mL (≈ 20.7 µM); in data set [6], 16 µg/mL (≈ 41.4 µM). Also, the figures for the MIC in data set [7] and in data set [8] were 16 µg/mL (≈ 41.4 µM) and 32 µg/mL (≈ 82.8 µM), respectively.

In the case of `O=C(c1ccccc1)c1ccc2[nH]c(SCC(O)(Cn3cncn3)c3ccc(Cl)cc3Cl)nc2c1` (stereo not drawn), the MIC in data set [1] worked out at 0.5 µg/mL (≈ 0.953 µM); in data set [2], 0.063 µg/mL (≈ 0.12 µM); in [3], 1 µg/mL (≈ 1.91 µM); in data set [4], 1 µg/mL (≈ 1.91 µM); in data set [5], 2 µg/mL (≈ 3.81 µM); in data set [6], 2 µg/mL (≈ 3.81 µM). Further, the MIC in [7] turned out to be 0.125 µg/mL (≈ 0.238 µM); in data set [8] it was 1 µg/mL (≈ 1.91 µM).

`OC(CSc1nc2ccccc2[nH]1)(Cn1cncn1)c1ccc(Cl)cc1` (stereo not drawn): the MIC in data set [1] came out at 8 µg/mL (≈ 20.7 µM); in [2] it was 4 µg/mL (≈ 10.4 µM); in data set [3] it was 8 µg/mL (≈ 20.7 µM); in data set [4], 16 µg/mL (≈ 41.5 µM); in data set [5], 16 µg/mL (≈ 41.5 µM); in data set [6], 16 µg/mL (≈ 41.5 µM). In addition, the MIC amounted to 8 µg/mL (≈ 20.7 µM) in [7] and 16 µg/mL (≈ 41.5 µM) in data set [8].

For the compound `O=C(c1ccccc1)c1ccc2[nH]c(SCC(O)(Cn3cncn3)c3ccc(F)cc3F)nc2c1` (stereo not drawn), the MIC came to 2 µg/mL (≈ 4.07 µM) in data set [1]; 2 µg/mL (≈ 4.07 µM) in [2]; 1 µg/mL (≈ 2.03 µM) in [3]; 1 µg/mL (≈ 2.03 µM) in data set [4]; 8 µg/mL (≈ 16.3 µM) in data set [5]; 2 µg/mL (≈ 4.07 µM) in [6]. For the same compound, the minimum inhibitory concentration (MIC) in [7] and in data set [8] was 1 µg/mL (≈ 2.03 µM) in each case.

For `O=[N+]([O-])c1ccc2[nH]c(SCC(O)(Cn3cncn3)c3ccc(F)cc3F)nc2c1` (stereo not drawn), the MIC in data set [1] is more than 64 µg/mL; in data set [2], 32 µg/mL (≈ 74 µM); in data set [3], more than 64 µg/mL; in data set [4] it was more than 64 µg/mL; in [5], more than 64 µg/mL; in [6] it was more than 64 µg/mL. The MIC in data set [7] and in data set [8] was 32 µg/mL (≈ 74 µM) each time.

`O=C(c1ccccc1)c1ccc2[nH]c(SCC(O)(Cn3cncn3)c3ccccc3)nc2c1` (stereo not drawn): the MIC in data set [1] came to 4 µg/mL (≈ 8.78 µM); in data set [2], 8 µg/mL (≈ 17.6 µM); in [3], 4 µg/mL (≈ 8.78 µM); in data set [4], 4 µg/mL (≈ 8.78 µM); in data set [5], 8 µg/mL (≈ 17.6 µM); in data set [6], 2 µg/mL (≈ 4.39 µM). Further, the MIC in data set [7] was 8 µg/mL (≈ 17.6 µM); in data set [8] it was 2 µg/mL (≈ 4.39 µM).

In the case of `OC(CSc1nc2ccccc2[nH]1)(Cn1cncn1)c1ccc(F)cc1F` (stereo not drawn), the MIC in data set [1], in data set [2], in data set [3], in [4], in [5] and in data set [6] was more than 64 µg/mL each time. Moreover, the MIC in data set [7] and in data set [8] was 32 µg/mL (≈ 82.6 µM) in each case.

`OC(CSc1nc2ccccc2s1)(Cn1cncn1)c1ccccc1` (stereo not drawn): the MIC in data set [1] worked out at 16 µg/mL (≈ 43.4 µM); in [2], 32 µg/mL (≈ 86.8 µM); in data set [3], 16 µg/mL (≈ 43.4 µM); in data set [4], 32 µg/mL (≈ 86.8 µM); in data set [5] it was 32 µg/mL (≈ 86.8 µM); in data set [6], 8 µg/mL (≈ 21.7 µM). Moreover, the MIC in data set [7] and in data set [8] was 16 µg/mL (≈ 43.4 µM) in each case.
